Measurements taken from patent US20250313548A1 (Actio Biosciences, Inc., priority 2023, published 2025).
pIC50: −log10 of the molar value.

biological target: human, KCNT1 (Homo sapiens (Human), UniProt Q5JUK3); assay: FLIPR Tl/K Flux Assay; type: cell-based; details: HEK293 cells stably expressing human KCNT1; Tl+ flux stimulated with EC80 of agonist Loxapine
Method: HEK293 cells stably expressing human, KCNT1 were cultured in DMEM, 10% FBS, 100 U/mL penicillin-streptomycin and […] puromycin for selection purposes. One day before the assay, cells were detached using TrypLE™ Express and counted using a cell counter. Only cells with >85% viability were used for the assay. […] The cells were incubated overnight at 37° C., 5% (v/v) CO2.
On the day of the assay, the reagents were prepared following the FLIPR® Potassium Assay Kit manual: prepare 2× dye solution, dilute the dye with assay buffer (20 mM HEPES in 1× HBSS, PH7.4), addition of probenecid to a final concentration of 5 mM, and vortexed vigorously for 1-2 minutes. The cell plate was flicked to remove medium and tapped on paper towels to remove excess media. […] The cell plate was moved to a plate shaker, agitated at 600 rpm for two minutes, and then incubated at 25° C. for one hour.
The compounds were prepared in DMSO and transferred to a 384-well compound plate (PP, low binding), referred to as a source plate. Reference agonist (300 nM) compound and test inhibitor (10 mM) compounds were added to the compound plate and a 4-fold serial dilution was performed in DMSO. Using an ECHO dispenser, compounds were dispensed at 90 nL/well from the source plate to a 384-well compound plate (PP, low binding). After the dispensing was complete, 30 µL/well assay buffer was added to the compound plate and mixed for two minutes on a plate shaker. The cell plate, compound plate, and tips were loaded into the FLIPR instrument, and a transfer of 10 μl of 3× compound to the cell plate was initiated. The treated cell plate was kept at in the dark at 25° C. for 30 minutes. Chloride-free stimulation buffer containing 4× 2 mM Tl+ and 4×EC80 of agonist Loxapine was loaded into a 384-well compound plate (PP, low binding). After the 30-minute incubation, the cell plate, compound plate containing stimulation buffer, and FLIPR tips were loaded into the FLIPR instrument. After a baseline read, the FLIPR initiates a transfer of 10 μL of stimulation buffer containing Loxapine to the cell plate. The plate was read for 160 sec with 1 second interval reads to obtain the data.
The normalized fluorescence reading (RFU) was calculated as shown follow, while Fmax and Fmin stand for maximum and minimum of signal during defined time window. The IC50 was calculated by fitting % inhibition against log of compound concentrations with Hill equation using XLfit.

Sequence of human, KCNT1 (Q5JUK3 whole entry): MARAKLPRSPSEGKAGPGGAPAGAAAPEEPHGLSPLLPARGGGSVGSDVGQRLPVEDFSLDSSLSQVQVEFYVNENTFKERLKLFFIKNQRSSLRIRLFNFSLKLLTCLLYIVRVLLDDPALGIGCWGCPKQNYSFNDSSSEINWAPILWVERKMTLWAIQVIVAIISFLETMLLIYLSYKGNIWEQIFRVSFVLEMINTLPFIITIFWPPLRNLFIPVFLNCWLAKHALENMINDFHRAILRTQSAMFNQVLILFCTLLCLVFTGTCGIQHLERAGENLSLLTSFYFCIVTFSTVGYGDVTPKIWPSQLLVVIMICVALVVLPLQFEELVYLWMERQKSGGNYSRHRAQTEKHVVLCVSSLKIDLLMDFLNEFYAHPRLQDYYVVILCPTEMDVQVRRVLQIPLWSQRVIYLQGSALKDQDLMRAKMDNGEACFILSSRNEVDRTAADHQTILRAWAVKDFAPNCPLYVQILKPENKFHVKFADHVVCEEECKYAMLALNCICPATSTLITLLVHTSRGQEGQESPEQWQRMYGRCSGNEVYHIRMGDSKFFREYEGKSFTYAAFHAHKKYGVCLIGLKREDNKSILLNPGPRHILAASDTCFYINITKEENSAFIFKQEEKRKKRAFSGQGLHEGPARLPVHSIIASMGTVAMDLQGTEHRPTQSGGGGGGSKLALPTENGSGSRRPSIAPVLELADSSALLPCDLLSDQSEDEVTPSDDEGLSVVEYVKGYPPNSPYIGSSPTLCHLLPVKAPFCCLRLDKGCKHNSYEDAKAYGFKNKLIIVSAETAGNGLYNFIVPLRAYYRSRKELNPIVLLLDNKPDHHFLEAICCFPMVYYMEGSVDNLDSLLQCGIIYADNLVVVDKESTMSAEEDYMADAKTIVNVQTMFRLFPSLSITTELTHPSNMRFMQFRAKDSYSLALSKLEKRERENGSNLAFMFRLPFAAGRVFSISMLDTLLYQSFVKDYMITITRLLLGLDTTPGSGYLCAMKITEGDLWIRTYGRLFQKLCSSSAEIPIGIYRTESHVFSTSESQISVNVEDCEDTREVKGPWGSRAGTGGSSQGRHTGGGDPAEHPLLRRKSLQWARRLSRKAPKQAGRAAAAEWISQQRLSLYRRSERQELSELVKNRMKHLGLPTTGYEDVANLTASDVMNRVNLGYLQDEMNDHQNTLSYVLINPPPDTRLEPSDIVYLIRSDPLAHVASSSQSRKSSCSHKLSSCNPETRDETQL

pIC50 | SMILES
> 6.60 | Cn1nc(C(F)(F)F)cc1C(=O)N[C@H]1CCc2nn(-c3ccnc(C(F)(F)F)c3)cc21 [Compound I-1a, (S)-1-Methyl-3-(trifluoromethyl)-N-(2-(2-(trifluoromethyl)pyridin-4-yl)-2,4,5,6-tetrahydrocyclopenta[c]pyrazol-4-yl)-1H-pyrazole-5-carboxamide]
< 6.00 | Cn1nc(C(F)(F)F)cc1C(=O)N[C@@H]1CCc2nn(-c3ccnc(C(F)(F)F)c3)cc21 [Compound I-1b, (R)-1-Methyl-3-(trifluoromethyl)-N-(2-(2-(trifluoromethyl)pyridin-4-yl)-2,4,5,6-tetrahydrocyclopenta[c]pyrazol-4-yl)-1H-pyrazole-5-carboxamide]
> 6.60 | O=C(N[C@H]1CCCc2nn(-c3ccnc(C(F)(F)F)c3)cc21)c1cc(Cl)cc(C(F)(F)F)c1 [Compound I-2a, (S)-3-Chloro-5-(trifluoromethyl)-N-(2-(2-(trifluoromethyl)pyridin-4-yl)-4,5,6,7-tetrahydro-2H-indazol-4-yl)benzamide]
6.00 to 6.30 | Cn1nc(CC#N)cc1C(=O)N[C@H]1CCCc2nn(-c3ccnc(C(F)(F)F)c3)cc21 [Compound I-3a]
> 6.60 | Cn1nc(C(F)(F)F)cc1C(=O)N[C@H]1CCCc2nn(-c3ccnc(C(F)(F)F)c3)cc21 [Compound I-4a, (S)-1-Methyl-3-(trifluoromethyl)-N-(2-(2-(trifluoromethyl)pyridin-4-yl)-4,5,6,7-tetrahydro-2H-indazol-4-yl)-1H-pyrazole-5-carboxamide]
< 6.00 | Cn1nc(C(F)(F)F)cc1C(=O)N[C@@H]1CCCc2nn(-c3ccnc(C(F)(F)F)c3)cc21 [Compound I-4b, (R)-1-Methyl-3-(trifluoromethyl)-N-(2-(2-(trifluoromethyl)pyridin-4-yl)-4,5,6,7-tetrahydro-2H-indazol-4-yl)-1H-pyrazole-5-carboxamide]
> 6.60 | O=C(N[C@H]1CCCc2nn(-c3ccnc(C4CC4)c3)cc21)c1cc(Cl)cc(C(F)(F)F)c1 [Compound I-5a]
> 6.60 | O=C(N[C@H]1CCCc2nn(-c3ccnc(C(F)(F)F)c3)cc21)c1cc(C(F)(F)F)nn1C1CC1 [Compound I-9a, (S)-1-Cyclopropyl-3-(trifluoromethyl)-N-(2-(2-(trifluoromethyl)pyridin-4-yl)-4,5,6,7-tetrahydro-2H-indazol-4-yl)-1H-pyrazole-5-carboxamide]
< 6.00 | CCOc1cc(-n2cc3c(n2)CCCC3NC(=O)c2ccccc2)ccn1 (stereo not shown) [Compound I-27]
< 6.00 | CN(C(=O)c1cc(C(F)(F)F)nn1C)[C@H]1CCCc2nn(-c3ccnc(C(F)(F)F)c3)cc21 [Compound I-37a, (S)—N,1-Dimethyl-3-(trifluoromethyl)-N-(2-(2-(trifluoromethyl)pyridin-4-yl)-4,5,6,7-tetrahydro-2H-indazol-4-yl)-1H-pyrazole-5-carboxamide]
> 6.60 | Cn1nc(C(F)(F)F)cc1C(=O)N[C@H]1CCCn2nc(-c3cnc(C(F)(F)F)s3)cc21 [Compound I-41a, (S)-1-Methyl-3-(trifluoromethyl)-N-(2-(2-(trifluoromethyl)thiazol-5-yl)-4,5,6,7-tetrahydropyrazolo[1,5-a]pyridin-4-yl)-1H-pyrazole-5-carboxamide]
< 6.00 | Cn1nc(C(F)(F)F)cc1C(=O)N[C@@H]1CCCn2nc(-c3ccnc(C(F)(F)F)c3)cc21 [Compound I-42b, (R)-1-Methyl-3-(trifluoromethyl)-N-(2-(2-(trifluoromethyl)pyridin-4-yl)-4,5,6,7-tetrahydropyrazolo[1,5-a]pyridin-4-yl)-1H-pyrazole-5-carboxamide]
< 6.00 | Cn1nc(C(F)(F)F)cc1C(=O)NC1CCc2ccc(-c3ccnc(C(F)(F)F)c3)nc21 (stereo not shown) [Compound I-43]
> 6.60 | Cc1c(-c2ccnc(C(F)(F)F)c2)nn2c1[C@@H](NC(=O)c1cc(C(F)(F)F)nn1C)CCC2 [Compound I-44a]
> 6.60 | Cn1nc(C(F)(F)F)cc1C(=O)N[C@H]1CCCCc2nn(-c3ccnc(C(F)(F)F)c3)cc21 [Compound I-45a, (S)-1-methyl-3-(trifluoromethyl)-N-(2-(2-(trifluoromethyl)pyridin-4-yl)-2,4,5,6,7,8-hexahydrocyclohepta[c]pyrazol-4-yl)-1H-pyrazole-5-carboxamide]
< 6.00 | Cn1nc(C(F)(F)F)cc1C(=O)N[C@@H]1CCCCc2nn(-c3ccnc(C(F)(F)F)c3)cc21 [Compound I-45b, (R)-1-methyl-3-(trifluoromethyl)-N-(2-(2-(trifluoromethyl)pyridin-4-yl)-2,4,5,6,7,8-hexahydrocyclohepta[c]pyrazol-4-yl)-1H-pyrazole-5-carboxamide]
6.30 to 6.60 | Cn1nc(C(F)(F)F)cc1C(=O)N[C@H]1CCc2cnc(-c3ccnc(C(F)(F)F)c3)nc21 [Compound I-46a, (S)-1-Methyl-3-(trifluoromethyl)-N-(2-(2-(trifluoromethyl)pyridin-4-yl)-6,7-dihydro-5H-cyclopenta[d]pyrimidin-7-yl)-1H-pyrazole-5-carboxamide]
< 6.00 | Cn1nc(C(F)(F)F)cc1C(=O)N[C@@H]1CCc2cnc(-c3ccnc(C(F)(F)F)c3)nc21 [Compound I-46b, (R)-1-methyl-3-(trifluoromethyl)-N-(2-(2-(trifluoromethyl)pyridin-4-yl)-6,7-dihydro-5H-cyclopenta[d]pyrimidin-7-yl)-1H-pyrazole-5-carboxamide]
> 6.60 | Cn1nc(C(F)(F)F)cc1C(=O)N[C@H]1CCCc2nn(-c3ccnc(C4CC4)c3)cc21 [Compound I-48a]
< 6.00 | Cn1nc(C(=O)N[C@H]2CCCc3nn(-c4ccnc(C(F)(F)F)c4)cc32)cc1C(C)(F)F [Compound I-49a]

pIC50 | SMILES
> 6.60 | Cn1nc(C(F)(F)F)nc1C(=O)N[C@H]1CCCc2nn(-c3ccnc(C(F)(F)F)c3)cc21 [Compound I-50a]
< 6.00 | Cn1nc(C(F)(F)F)cc1C(=O)NC1(C)CCCc2nn(-c3ccnc(C(F)(F)F)c3)cc21 (stereo not shown) [Compound I-51]
< 6.00 | Cn1nc(C(F)(F)F)cc1CC(=O)N[C@H]1CCCc2nn(-c3ccnc(C(F)(F)F)c3)cc21 [Compound I-53a, (S)-2-(1-Methyl-3-(trifluoromethyl)-1H-pyrazol-5-yl)-N-(2-(2-(trifluoromethyl)pyridin-4-yl)-4,5,6,7-tetrahydro-2H-indazol-4-yl)acetamide]
> 6.60 | Cn1nc(C(F)(F)F)cc1C(=O)N[C@H]1CCCCc2nn(-c3ccnc(C4CC4)c3)cc21 [Compound I-56a]
6.00 to 6.30 | Cn1nc(C(F)(F)F)cc1C(=O)N[C@@H]1CCCCc2nn(-c3ccnc(C4CC4)c3)cc21 [Compound I-56b]
> 6.60 | Cc1cccc(C(=O)N[C@H]2CCCCc3nn(-c4ccnc(C5CC5)c4)cc32)c1 [Compound I-58a]
6.00 to 6.30 | Cc1cccc(C(=O)N[C@@H]2CCCCc3nn(-c4ccnc(C5CC5)c4)cc32)c1 [Compound I-58b]
> 6.60 | O=C(N[C@H]1CCCCc2nn(-c3ccnc(C4CC4)c3)cc21)c1cccc(C(F)(F)F)c1 [Compound I-60a]
6.00 to 6.30 | O=C(N[C@@H]1CCCCc2nn(-c3ccnc(C4CC4)c3)cc21)c1cccc(C(F)(F)F)c1 [Compound I-60b]
> 6.60 | Cn1nc(C(F)(F)F)cc1C(=O)N[C@H]1CCCn2nc(-c3ccnc(C4CC4)c3)cc21 [Compound I-64a]
6.00 to 6.30 | Cn1nc(C(F)(F)F)cc1C(=O)N[C@@H]1CCCn2nc(-c3ccnc(C4CC4)c3)cc21 [Compound I-64b]
> 6.60 | O=C(N[C@H]1CCn2nc(-c3ccnc(C4CC4)c3)cc21)c1ccc(C(F)(F)F)nc1 [Compound I-66a]
> 6.60 | Cn1nc(C(F)(F)F)cc1C(=O)N[C@H]1CCn2nc(-c3ccnc(C4CC4)c3)cc21 [Compound I-68a]
6.00 to 6.30 | Cn1nc(C(F)(F)F)cc1C(=O)N[C@@H]1CCn2nc(-c3ccnc(C4CC4)c3)cc21 [Compound I-68b]
> 6.60 | CCc1cc(-n2cc3c(n2)CC[C@@H]3NC(=O)c2cc(C(F)(F)F)nn2C)ccn1 [Compound I-69a]
< 6.00 | CCc1cc(-n2cc3c(n2)CC[C@H]3NC(=O)c2cc(C(F)(F)F)nn2C)ccn1 [Compound I-69b]
> 6.60 | CC(C)c1cc(-n2cc3c(n2)CC[C@@H]3NC(=O)c2cc(C(F)(F)F)nn2C)ccn1 [Compound I-70a]
< 6.00 | CC(C)c1cc(-n2cc3c(n2)CC[C@H]3NC(=O)c2cc(C(F)(F)F)nn2C)ccn1 [Compound I-70b]
> 6.60 | Cn1nc(C(F)(F)F)cc1C(=O)N[C@H]1CCc2nn(-c3ccnc(C4CC4)c3)cc21 [Compound I-71a]
6.00 to 6.30 | Cn1nc(C(F)(F)F)cc1C(=O)N[C@@H]1CCc2nn(-c3ccnc(C4CC4)c3)cc21 [Compound I-71b]
